In ChEMBL document CHEMBL1201862, “PubChem BioAssay data set” (2004):
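Method: 48-hour compound exposure of cells in 96-well plates, five concentrations, linear interpolation of endpoints. GI50: concentration for 50% inhibition of growth.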 Activity calls are given as the source filed them. Rule as the data show it: active = GI50 up to about 1.1 µM and inactive = higher.

Columns and labels:
Assay in all cases: NCI-60 cell line screen, 48 h
RPMI-8226 = system: RPMI-8226
TK-10 = system: TK-10
NCI-H522 = system: NCI-H522
786-0 = system: 786-0
SK-MEL-5 = system: SK-MEL-5
HCT-15 = system: HCT-15
CCRF-CEM = system: CCRF-CEM
KM12 = system: KM12
SN12C = system: SN12C
BT-549 = system: BT-549
UO-31 = system: UO-31
DU-145 = system: DU-145
UACC-257 = system: UACC-257
M14 = system: M14
SNB-75 = system: SNB-75
NCI-H460 = system: NCI-H460
A549 = system: A549
LOX IMVI = system: LOX IMVI
COLO 205 = system: COLO 205
OVCAR-3 = system: OVCAR-3
Hs-578T = system: Hs-578T
MOLT-4 = system: MOLT-4
K562 = system: K562
SF-295 = system: SF-295
SR = system: SR
MCF7 = system: MCF7
A498 = system: A498
SK-MEL-2 = system: SK-MEL-2
T47D = system: T47D
OVCAR-4 = system: OVCAR-4
MDA-MB-435 = system: MDA-MB-435
MDA-MB-231 = system: MDA-MB-231
IGROV-1 = system: IGROV-1
RXF 393 = system: RXF 393
ACHN = system: ACHN
NCI-H23 = system: NCI-H23
NCI/ADR-RES = system: NCI/ADR-RES
PC-3 = system: PC-3
SW-620 = system: SW-620
HL-60 = system: HL-60
SNB-19 = system: SNB-19
SF-539 = system: SF-539
Malme-3M = system: Malme-3M
EKVX = system: EKVX
CAKI-1 = system: CAKI-1
NCI-H226 = system: NCI-H226
OVCAR-8 = system: OVCAR-8
HOP-62 = system: HOP-62
OVCAR-5 = system: OVCAR-5
SK-OV-3 = system: SK-OV-3
SK-MEL-28 = system: SK-MEL-28
HT-29 = system: HT-29
U-251 = system: U-251
HCT-116 = system: HCT-116
MDA-N = system: MDA-N
UACC-62 = system: UACC-62
SF-268 = system: SF-268
HCC 2998 = system: HCC 2998
HOP-92 = system: HOP-92

Measured: GI50

CC(SC(=S)N1CCOCC1)C(=O)Nc1nnc(-c2ccccc2)o1 (centres undefined)
inactive: RPMI-8226 43.1 µM | TK-10 > 100 µM | NCI-H522 39.8 µM | 786-0 83.2 µM | SK-MEL-5 46.7 µM | CCRF-CEM 4.23 µM | KM12 > 100 µM | SN12C 93.3 µM | BT-549 > 100 µM | UO-31 53.2 µM | DU-145 > 100 µM | UACC-257 > 100 µM | M14 > 100 µM | SNB-75 > 100 µM | NCI-H460 > 100 µM | A549 70 µM | LOX IMVI 71.4 µM | COLO 205 > 100 µM | OVCAR-3 > 100 µM | Hs-578T > 100 µM | MOLT-4 36.8 µM | K562 55.1 µM | SF-295 88.5 µM | SR 21.8 µM | MCF7 60.1 µM | A498 > 100 µM | SK-MEL-2 > 100 µM | T47D 91.6 µM | OVCAR-4 > 100 µM | MDA-MB-435 > 100 µM | MDA-MB-231 > 100 µM | IGROV-1 99.1 µM | RXF 393 > 100 µM | ACHN 97.7 µM | NCI-H23 > 100 µM | NCI/ADR-RES 26.1 µM | PC-3 57.1 µM | SW-620 51.6 µM | HL-60 5.05 µM | SNB-19 > 100 µM | SF-539 > 100 µM | Malme-3M > 100 µM | EKVX > 100 µM | CAKI-1 > 100 µM | NCI-H226 > 100 µM | OVCAR-8 > 100 µM | HOP-62 > 100 µM | OVCAR-5 > 100 µM | SK-OV-3 > 100 µM | SK-MEL-28 > 100 µM | HT-29 61.1 µM | U-251 > 100 µM | HCT-116 93.3 µM | MDA-N > 100 µM
29.7 µM: HCT-15

CC(=O)NNC(=S)N/C=C1/C(=O)Oc2ccccc2C1=O
inactive: RPMI-8226 > 100 µM | TK-10 > 100 µM | NCI-H522 > 100 µM | 786-0 > 100 µM | SK-MEL-5 > 100 µM | UACC-62 51.6 µM | CCRF-CEM > 100 µM | KM12 > 100 µM | SF-268 > 100 µM | SN12C > 100 µM | BT-549 > 100 µM | UO-31 > 100 µM | DU-145 > 100 µM | UACC-257 > 100 µM | M14 > 100 µM | SNB-75 > 100 µM | NCI-H460 > 100 µM | A549 > 100 µM | LOX IMVI > 100 µM | COLO 205 > 100 µM | OVCAR-3 > 100 µM | Hs-578T > 100 µM | MOLT-4 > 100 µM | K562 > 100 µM | SF-295 > 100 µM | SR > 100 µM | MCF7 > 100 µM | A498 > 100 µM | SK-MEL-2 > 100 µM | T47D 5.2 µM | OVCAR-4 > 100 µM | MDA-MB-435 > 100 µM | MDA-MB-231 > 100 µM | IGROV-1 > 100 µM | ACHN > 100 µM | NCI-H23 > 100 µM | NCI/ADR-RES > 100 µM | PC-3 > 100 µM | SW-620 > 100 µM | HL-60 > 100 µM | SNB-19 > 100 µM | SF-539 > 100 µM | Malme-3M > 100 µM | CAKI-1 > 100 µM | NCI-H226 > 100 µM | HCC 2998 > 100 µM | OVCAR-8 > 100 µM | HOP-62 > 100 µM | OVCAR-5 > 100 µM | SK-MEL-28 > 100 µM | HT-29 > 100 µM | U-251 > 100 µM | HCT-116 > 100 µM | MDA-N > 100 µM
active: RXF 393 0.0703 µM
> 100 µM: HCT-15

CC(C)=CCc1c2c(c3occ(-c4ccc(O)c(O)c4)c(=O)c3c1O)C=CC(C)(C)O2 [POMIFERIN]
active: NCI-H522 0.188 µM | CCRF-CEM 0.723 µM | MOLT-4 0.553 µM | SR 0.204 µM | SW-620 0.714 µM
1.91 µM: HCT-15
inactive: RPMI-8226 1.67 µM | TK-10 1.6 µM | 786-0 1.51 µM | SK-MEL-5 2.96 µM | UACC-62 3.85 µM | KM12 1.72 µM | SF-268 1.87 µM | SN12C 1.58 µM | BT-549 3.46 µM | UO-31 1.54 µM | DU-145 3.47 µM | UACC-257 1.91 µM | M14 1.68 µM | SNB-75 3.61 µM | NCI-H460 1.64 µM | A549 2.55 µM | LOX IMVI 2.19 µM | COLO 205 1.78 µM | OVCAR-3 1.66 µM | Hs-578T 1.22 µM | K562 2.29 µM | SF-295 3.77 µM | MCF7 1.34 µM | A498 15.3 µM | SK-MEL-2 2.6 µM | T47D 1.86 µM | OVCAR-4 1.59 µM | MDA-MB-435 1.75 µM | MDA-MB-231 1.39 µM | IGROV-1 2.11 µM | RXF 393 2.39 µM | ACHN 2.39 µM | NCI-H23 1.57 µM | NCI/ADR-RES 2.18 µM | PC-3 1.61 µM | HOP-92 2.07 µM | SNB-19 1.96 µM | SF-539 1.91 µM | Malme-3M 1.14 µM | EKVX 4.86 µM | CAKI-1 1.55 µM | NCI-H226 16.9 µM | HCC 2998 1.22 µM | OVCAR-8 2.81 µM | HOP-62 1.89 µM | OVCAR-5 7.82 µM | SK-OV-3 6.71 µM | SK-MEL-28 2.51 µM | HT-29 1.84 µM | U-251 1.48 µM | HCT-116 1.85 µM | MDA-N 1.7 µM
